One assay deals with M17-SYNwt cells. Description: α-synuclein cytotoxicity assay (LDH leakage from paraquat-treated cells). It is filed as cell-based, human. The settings on record: Homo sapiens; inhibition of synuclein cytotoxicity, paraquat-treated M17-SYNwt cells, 10 point curves in duplicate. On the procedure: 1,2,4-thiadazole compounds made according to the methods described herein were screened for activity using the α-synuclein cytotoxicity assay as described above. Dose responses were carried out on all compounds found to be active (10 point curves in duplicate).
In general terms: Release of lactate dehydrogenase indicates damage to the cell membrane.

In assay [1] the test system is dopaminergic substantia nigra neurons. The assay is described as follows: In vivo inhibition of paraquat-triggered loss of substantia nigra neurons (TH immunohistochemistry). The conditions noted are these: mice, paraquat intraperitoneal, compound not higher than 20 mg/kg body weight/day, 8 weeks, versus vehicle. On the procedure: In order to model neuronal loss in the substantia nigra region of the brain, mice were treated with paraquat (intraperitoneal) at a dose not higher than 8 mg/kg/day for a continuous period of 15-100 days. These mice were also chronically co-treated during that period with: • compound 60 (1-[4-methoxyphenylsulfonyl]-4-[3-(4-methylbenzyl)-1,2,4-thiadiazol-5-yl]-2-methylpiperazine), or • compound 32 (1-[4-methoxyphenylsulfonyl]-4-[3-(4-fluorobenzyl)-1,2,4-thiadiazol-5-yl]piperazine), or • compound 53 (1-[4-methoxyphenylsulfonyl]-4-[3-(3-methoxy-benzyl)-1,2,4-thiadiazol-5-yl]piperazine), each being administered at a dose not higher than 20 mg/kg body weight/day), or by vehicle only (no active compound). Mice treatment by means of vehicle or a compound of the invention started 2 days before administration of paraquat.
At the end of the treatment period, mice were sacrificed and the corresponding brains were used for immunohistochemical analysis. […] Using antibodies raised against tyrosin hydroxylase (anti-tyrosin hydroxylase), tyrosine hydroxylase containing neurons in the brains were detected.
Three groups of mice were treated with either paraquat and compound 53 (group 3; n=6), or paraquat and vehicle of compound 53 (group 2; n=4), or vehicle paraquat and vehicle of compound 53 (group 1; n=3). […] Per mouse, the median % TH-positive areas (of the substantia nigra regions) was determined. […]

Converted amounts (≈) assume the structure as drawn. “Also recorded” adds a separate entry of the source.

Consider one molecule from patent publication US8541406B2, “Thiadiazole derivatives for the treatment of neurodegenerative diseases” (NV reMYND, priority 2006, dated 2013).

Consider `COc1ccc(S(=O)(=O)N2CCN(c3nc(Cc4cccc(OC)c4)ns3)CC2)cc1` [Compound 53, 1-[4-methoxyphenylsulfonyl]-4-[3-(3-methoxybenzyl)-1,2,4-thiadiazol-5-yl]piperazine], for which the EC50 (usually the concentration that produces a half-maximal response) in the assay with M17-SYNwt cells was 0.66 ng/mL (≈ 1.43 nM). The “protection of TH-positive substantia nigra area against paraquat-triggered degeneration” value in assay [1] is “inhibition of paraquat-triggered degeneration of substantia nigra cells; also recorded: protects dopaminergic substantia nigra neurons against paraquat-triggered degeneration”.
